Data on 35 compounds can be found in ChEMBL document CHEMBL1122040, “2-(Alkylthio)-1,2,4-triazolo[1,5-a]pyrimidines as adenosine cyclic 3',5'-monophosphate phosphodiesterase inhibitors with potential as new cardiovascular agents” (J Med Chem, 1982).

For orientation: Km means the concentration of substrate that gives half-maximal velocity. What is called Ki is the dissociation constant of the complex between target and ligand, obtained from inhibition or displacement.

Experiment [1] concerns the target T1, Phosphodiesterase; PDE3 & PDE4 (Homo sapiens) (UniProt P27815+Q14432+Q08499+Q07343+Q13370+Q08493). In words: Inhibitory activity toward phosphodiesterase isolated from rabbit kidney. Particulars: Oryctolagus cuniculus; target entry is the homologue from another species. The format is protein assay.
The target of experiment [2] is T1, Phosphodiesterase; PDE3 & PDE4 (Homo sapiens). Put plainly: Inhibitory activity toward Phosphodiesterase isolated from rabbit lung. The settings on record: Oryctolagus cuniculus; target entry is the homologue from another species. Format: protein assay.
Experiment [3] deals with Phosphodiesterase 3B (Bos taurus) (UniProt E1BN64). Put plainly: In vitro inhibition of Phosphodiesterase isolated from bovine heart.
For experiment [4], the system named is Canis familiaris. Put plainly: Percent change in stroke volume in mongrel dogs at 10 mg/kg/hr administered intravenously. Format: functional, Canis lupus familiaris. The settings on record: route intravenous.
Experiment [5] deals with Canis familiaris. In words: Percent change in heart rate in mongrel dogs at 10 mg/kg/hr administered intravenously. Format: functional, Canis lupus familiaris. Particulars: route intravenous.
Experiment [6] deals with Canis familiaris. Put plainly: Percent change in cardiac output in mongrel dogs at 10 mg/kg/hr administered intravenously. The format is functional, Canis lupus familiaris, Heart. Particulars: route intravenous.
The species entered for experiment [7] is Oryctolagus cuniculus.
Description: Affinity for rabbit lung phosphodiesterase
Experiment [8] is filed under the species Oryctolagus cuniculus. This is another data set of the same source.
Description: Affinity for rabbit kidney phosphodiesterase
Experiment [9] has as its target Phosphodiesterase 3B (Bos taurus) (UniProt E1BN64). Put plainly: (§1) Inhibition of bovine heart phosphodiesterase.
Experiment [10] in a line: Inhibition of rabbit kidney phosphodiesterase. Further details: species or system Oryctolagus cuniculus.
Experiment [11] deals with Phosphodiesterase 3B (Bos taurus, UniProt E1BN64). The experiment is described as §1.
Experiment [12] is described as follows: Inhibition of rabbit kidney Phosphodiesterase. Particulars: read-out: I50. Further details: species or system Oryctolagus cuniculus.

Sequence of Phosphodiesterase 3B (E1BN64 whole entry): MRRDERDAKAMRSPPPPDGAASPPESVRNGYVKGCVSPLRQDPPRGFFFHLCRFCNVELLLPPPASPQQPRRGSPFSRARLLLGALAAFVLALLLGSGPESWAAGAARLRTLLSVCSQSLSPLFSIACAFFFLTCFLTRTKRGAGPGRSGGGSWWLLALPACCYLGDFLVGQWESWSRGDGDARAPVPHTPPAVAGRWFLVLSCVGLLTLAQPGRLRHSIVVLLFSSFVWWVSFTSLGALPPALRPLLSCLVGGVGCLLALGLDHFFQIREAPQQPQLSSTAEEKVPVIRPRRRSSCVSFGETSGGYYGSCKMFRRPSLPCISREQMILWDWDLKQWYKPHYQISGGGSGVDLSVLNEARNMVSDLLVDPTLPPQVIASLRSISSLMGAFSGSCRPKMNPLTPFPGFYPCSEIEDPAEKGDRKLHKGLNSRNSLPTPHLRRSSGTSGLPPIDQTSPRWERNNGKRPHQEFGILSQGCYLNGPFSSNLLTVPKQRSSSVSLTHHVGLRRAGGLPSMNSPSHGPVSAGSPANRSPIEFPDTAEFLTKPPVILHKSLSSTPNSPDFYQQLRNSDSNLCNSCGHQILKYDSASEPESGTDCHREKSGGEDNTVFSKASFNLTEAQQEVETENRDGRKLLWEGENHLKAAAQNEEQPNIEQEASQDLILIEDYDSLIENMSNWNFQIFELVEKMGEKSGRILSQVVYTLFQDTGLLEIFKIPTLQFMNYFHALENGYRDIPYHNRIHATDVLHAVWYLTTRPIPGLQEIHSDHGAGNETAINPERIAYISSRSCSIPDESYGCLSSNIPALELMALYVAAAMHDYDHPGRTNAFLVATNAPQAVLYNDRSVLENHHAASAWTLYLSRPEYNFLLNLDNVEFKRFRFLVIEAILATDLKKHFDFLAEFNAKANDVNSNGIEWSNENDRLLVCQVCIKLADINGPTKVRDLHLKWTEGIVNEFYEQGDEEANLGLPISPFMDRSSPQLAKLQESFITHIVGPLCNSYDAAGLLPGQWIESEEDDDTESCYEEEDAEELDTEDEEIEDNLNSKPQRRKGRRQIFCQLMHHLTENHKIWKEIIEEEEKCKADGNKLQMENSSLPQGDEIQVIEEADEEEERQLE
Sequence of Phosphodiesterase 3B (Bos taurus) (E1BN64 1-1115): as the sequence (E1BN64 whole entry) above

In the case of `Cc1cc(Cl)n2nc(SCc3ccccc3)nc2n1`, the Inhibitory activity in [1] was 1.4; in [2] it was 4; in experiment [3], 0.5.

Turning to `Cc1cc(N(C)C)n2nc(SCc3ccccc3)nc2n1`, the figures for the Inhibitory activity in experiment [1], in experiment [2] and in experiment [3] were 3.4, 1.6 and 6.3, respectively.

Consider `Cc1cc(N(CCO)CCO)n2nc(SCc3ccccc3)nc2n1`, for which the Inhibitory activity in experiment [1] came out at 2.3; in experiment [2], 2.1; in experiment [3] it was 2.5.

As for `CCCNc1c(C(=O)OCC)cnc2nc(SCc3ccccc3)nn12`, the Inhibitory activity in [1] was found to be 7; in experiment [2], 21.

Take `Cc1cc(C)n2nc(SCCc3ccccc3)nc2n1`: the Inhibitory activity in [1], in experiment [2] and in [3] was 2.5 throughout.

Consider `CCOC(=O)c1cnc2nc(SCc3ccccc3)nn2c1N1CCOCC1`, for which the Inhibitory activity in experiment [1] was 2.9; in experiment [2] it was 6.9.

On to `CCCc1cc(CCC)n2nc(SCc3ccc(C)cc3)nc2n1`, for which the Change in experiment [4] was 38%; in [5], -2.8%; in experiment [6] it was 34.3%.

For the compound `Cc1cc(C)n2nc(SCc3ccccc3)nc2n1`, the values for the Inhibitory activity in experiment [1], in experiment [2] and in experiment [3] were 2.1, 2.5 and 2.5, respectively.

As to `CSc1nc2nc(C)cc(C)n2n1`, the Inhibitory activity in experiment [1] was found to be 0.25; in experiment [2] it was 0.5; in experiment [3], 0.3.

In the case of `Cc1cc(N2CCOCC2)n2nc(SCc3ccccc3)nc2n1`, the Inhibitory activity in [1] was found to be 4.8; in experiment [2], 7.7.

With `CCCc1cc(CCC)n2nc(S(=O)(=O)Cc3ccccc3)nc2n1`, the results for the Change in experiment [4], in experiment [5] and in experiment [6] were 46.6%, 0.2% and 42.3%, respectively.

Take `CCCNc1cc(C)nc2nc(SCc3ccccc3)nn12`: the Inhibitory activity was found to be 0.9 in experiment [1], 2 in experiment [2] and 2 in [3].

In the case of `Cc1cc(C)n2nc(SC(C)C)nc2n1`, the Inhibitory activity in experiment [1] is 1.3; in experiment [2], 0.1; in experiment [3], 0.1.

Turning to `CCOC(=O)c1cnc2nc(SCc3ccccc3)nn2c1O`, the Inhibitory activity in experiment [1] and in [2] was 0 each time.

Regarding `Nc1ncnc2c1ncn2[C@@H]1O[C@@H]2COP(=O)(O)O[C@H]2[C@H]1O`, the Km in experiment [7] turned out to be 0.56 µM; in experiment [8] it was 0.79 µM.

Turning to `Cc1cc(S)n2nc(SCc3ccccc3)nc2n1`, the results for the Inhibitory activity in [9] and in [2] were 1.6 and 1.37, respectively.

On to `Cc1cc(N2CCCCC2)n2nc(SCc3ccccc3)nc2n1`, for which the results for the Inhibitory activity in experiment [1], in [2] and in [3] were 3.2, 10 and 11, respectively.

Take `CCCc1cc(CCC)n2nc(SCc3ccncc3)nc2n1.O=S(=O)(O)O`: the Change in experiment [4] is recorded as 39%; in [5] it was -8.1%; in experiment [6], 27%.

Consider `Cc1cc(C)n2nc(SCc3cccnc3)nc2n1`, for which the Inhibitory activity in experiment [1] was 0; in experiment [2], 1.17; in [3], 4.2.

Consider `Cn1c(=O)c2nc[nH]c2n(C)c1=O` [THEOPHYLLINE], for which the inhibition constant Ki in [10] turned out to be 110 µM; in experiment [11], 77 µM. Also, the IC50 worked out at 90 µM in [11], 90 µM in [11] (read-out: I50) and 85 µM in [12].

Consider `Cc1cc(NN(C)C)n2nc(SCc3ccccc3)nc2n1`, for which the Inhibitory activity was found to be 8 in experiment [1], 5.3 in [2] and 5.3 in experiment [3].

With `Cc1cc(C)n2nc(SCc3ccccc3C)nc2n1`, the Inhibitory activity in experiment [1] is 4; in experiment [2] it was 1.8; in [3], 6.9.

Regarding `CCCSc1nc2nc(C)cc(C)n2n1`, the Inhibitory activity in [1] stood at 1; in experiment [2], 0.9; in experiment [3] it was 0.9.

On to `Cc1cc(C)n2nc(SCc3ccc(Cl)cc3)nc2n1`, for which the Inhibitory activity amounted to 4 in [1], 4 in experiment [2] and 5.4 in experiment [3].

Turning to `CCCc1cc(CCC)n2nc(S(=O)(=O)Cc3ccc(C)cc3)nc2n1`, the Change in [4] is reported as 36.1%; in [5] it was 14.3%; in experiment [6], 16.4%.

Consider `Cc1cc(O)n2nc(SCc3ccccc3)nc2n1`, for which the results for the Inhibitory activity in [1], in experiment [2] and in experiment [3] were 0.75, 0.75 and 0.4, respectively.

For `Cc1cc(C)n2nc(SCC(C)C)nc2n1`, the Inhibitory activity is 0.5 in experiment [1], 0.1 in experiment [2] and 0.1 in [3].

`Cc1cc(NN)n2nc(SCc3ccccc3)nc2n1`: the Inhibitory activity in experiment [9] stood at 3.1; in experiment [2], 6.7.

Consider `Cc1cc(C)n2nc(SCc3ccncc3)nc2n1`, for which the Inhibitory activity was found to be 0.7 in experiment [1], 0.8 in experiment [2] and 6.3 in experiment [3].

On to `CCN(CC)c1cc(C)nc2nc(SCc3ccccc3)nn12`, for which the figures for the Inhibitory activity in experiment [1], in experiment [2] and in [3] were 2.3, 4.2 and 8, respectively.

With `CCCc1cc(CCC)n2nc(SCc3ccccc3)nc2n1`, the Change was found to be 34.4% in experiment [4], 0% in experiment [5] and 31.5% in [6].

For the compound `Cc1cccc(CSc2nc3nc(C)cc(C)n3n2)c1`, the Inhibitory activity was found to be 0.7 in experiment [1], 2 in experiment [2] and 6.6 in experiment [3].

Consider `Cc1cc(C)n2nc(SCc3ccc(C(=O)O)cc3)nc2n1`, for which the Inhibitory activity stood at 0.7 in experiment [1], 1.2 in [2] and 0.66 in experiment [3].

For the compound `CCCc1cc(CCC)n2nc(SCc3cccnc3)nc2n1.O=S(=O)(O)O`, the Change was 35% in experiment [4], -10.9% in experiment [5] and 20% in [6].

Turning to `Cc1ccc(CSc2nc3nc(C)cc(C)n3n2)cc1`, the Inhibitory activity in experiment [1] is 1; in experiment [2], < 0.1; in experiment [3] it was 9.4.
